This note sets out measurements from patent EP0888346B1, “CORALYNE ANALOGS AS TOPOISOMERASE INHIBITORS” (RUTGERS, THE STATE UNIVERSITY OF NEW JERSEY, priority 1996, dated 1997).

Data set [1] concerns Human lymphoblast RPMI 8402 cells. Briefly: MTT-microtiter plate tetrazolinium cytotoxicity assay (MTA). It is filed as cell-based. Conditions: Homo sapiens, RPMI 8402, 96 h. From the text: The results were plotted and the IC50 then measured.
Data set [2] relates to yeast cells expressing functional yeast topoisomerase I. Briefly: Yeast cytotoxicity assay, strain expressing wild-type yeast topo I. The conditions noted are these: plates with 1 µM drug (camptothecin 0.5 µM), 3 days at 30°C. It is filed as cell-based, S. cerevisiae. From the text:
It has been established that yeast can survive when topoisomerase I function is obliterated, and that the topoisomerase I poisons only kill cells having a functional topoisomerase I (Bjornsti et al. Cancer Res. 49:6318-6323 (1989)).
The topoisomerase I-specific in vivo cytotoxicity assay was adapted from Knab et al. (Knab et al., J. Biol. Chem. 268:22322-22330 (1993)). In this system, various topo I genes cloned into the single copy yeast plasmid vector, YCpGAL1 (Knab et al., J. Biol. Chem. 268:22322-22330 (1993)), are expressed under the control of the GAL1 promoter in the JN2-134 strain of S. cerevisiae (MATa, rad52::LEU2, trp1, ade2-1,his7, ura3-52, isel, top1-1, leu2) (Bjornsti et al., Cancer Res. 49:6318-6323 (1989)). The topo I constructs in the vector are, respectively, the wild-type yeast topo I (YCpGAL-ScTOP1), a non-functional yeast topo I where the active site tyrosine-727 is mutated to a phenylalanine (YCpGAL1-Sctop1Y727F) (Knab et al., J. Biol. Chem. 268:22322-22330 (1993)), and the wild type human topoisomerase I (YCpGAL-hTOP1) (Bjornsti et al., Cancer Res. 49:6318-6323 (1989)). To qualitatively test the cytotoxicity and the topo I specificity of the drugs, yeast cells containing the specific plasmid were serially diluted (5-fold) and were grown in dropout medium supplemented with uracil and 2% galactose In addition, the plates contained: A: Control, no drug in the plate; B: Camptothecin (CPT), 0.5 µM; C: Coralyne, 1 µM; D: Methylenedioxy-dihydro-demethyl-coralyne (MDD-Coralyne), 1 µM, and E: Nitidine, 1 µM. The plates were grown for 3 days at 30°C to assess the lethal effect of the different compounds on the various topoisomerase I enzymes expressed in S. cerevisiae.and the drug being tested.

Data set [3] concerns the target T1, recombinant CPT-K5 topoisomerase I (Homo sapiens, UniProt P11387, D533G).
T1 construct: 15 amino acid vector-derived fusion (pET-11a leader); made in house; host or cells: E. coli BL21(DE3)
T1 sequence (P11387 1-765 D533G): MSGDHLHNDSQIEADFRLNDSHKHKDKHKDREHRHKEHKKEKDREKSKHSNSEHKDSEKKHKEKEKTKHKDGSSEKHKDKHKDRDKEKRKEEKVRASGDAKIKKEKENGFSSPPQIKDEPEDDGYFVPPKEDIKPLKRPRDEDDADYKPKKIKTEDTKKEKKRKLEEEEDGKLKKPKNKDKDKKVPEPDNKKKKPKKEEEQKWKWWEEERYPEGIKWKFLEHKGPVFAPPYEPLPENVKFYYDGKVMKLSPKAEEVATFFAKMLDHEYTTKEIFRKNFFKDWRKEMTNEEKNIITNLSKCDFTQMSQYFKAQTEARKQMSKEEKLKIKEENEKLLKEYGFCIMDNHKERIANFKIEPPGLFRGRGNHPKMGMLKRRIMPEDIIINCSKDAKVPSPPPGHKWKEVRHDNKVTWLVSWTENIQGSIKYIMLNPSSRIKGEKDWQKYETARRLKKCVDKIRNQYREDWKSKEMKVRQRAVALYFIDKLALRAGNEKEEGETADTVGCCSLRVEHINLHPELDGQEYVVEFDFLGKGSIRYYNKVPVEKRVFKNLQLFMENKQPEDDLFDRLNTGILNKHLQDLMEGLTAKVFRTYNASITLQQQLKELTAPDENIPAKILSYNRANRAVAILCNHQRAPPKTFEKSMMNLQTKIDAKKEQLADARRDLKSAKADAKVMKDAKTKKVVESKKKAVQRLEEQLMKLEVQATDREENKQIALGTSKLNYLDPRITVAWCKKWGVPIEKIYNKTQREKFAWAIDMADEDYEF
Briefly: Cleavage assay with camptothecin-resistant mutant topo I. Format: biochemical. The conditions noted are these: relative to wildtype human topoisomerase I. The protocol:
Cleavage assays for the recombinant topoisomerases I and calf thymus topoisomerases I and II were done as described (Liu et al., J. Biol. Chem. 258:15365-15370 (1983)). The plasmid YEpG DNA used for the cleavage assays was prepared and labeled at its 3'-end using the published procedures.

Where two headings read alike, the source gives them in different places.

With `CC[C@@]1(O)C(=O)OCc2c1cc1n(c2=O)Cc2cc3ccccc3nc2-1` [CPT, camptothecin, reference compound], the IC50 in data set [1] (read-out: Cytotoxicity IC50 RPMI) came out at 4 nM; in data set [1] (read-out: Cytotoxicity RPMI 8402) it was 3 ng/mL. For the same compound, in data set [2], the “cytotoxicity against yeast cells expressing functional yeast topoisomerase I (in words)” value is on record as “quite sensitive”. The “resistance of recombinant CPT-K5 topoisomerase I to the drug” value in data set [3] was “over 1000 fold”.
